In ChEMBL document CHEMBL1150686, “Three new sesquiterpenes from the red alga Laurencia perforata” (J Nat Prod, 2003):
The source made the active and inactive calls. No cut-off for these calls is given here.

Tests used:
[1] = molecular target: Human immunodeficiency virus type 1 reverse transcriptase (Human immunodeficiency virus 1) (UniProt Q72547); assay: Inhibition of HIV1 reverse transcriptase
[2] = Inhibition of protein tyrosine kinase

Row | Activity [1] | Activity [2] | SMILES
1 | inactive | inactive | CC1=CC[C@@]2(C)C(=C(C)C(=O)[C@H](O)[C@@H]2C)CC1
2 | inactive | inactive | C=C1[C@@H]2CC[C@]13[C@H](C)C(=O)[C@@H](O)[C@@H](C)[C@]3(C)C2 (relative stereo)
3 | inactive | inactive | CC1=CC[C@@]2(C)C(=C(C)C(=O)[C@H](O)[C@@H]2C)[C@H](O)C1 (relative stereo)
